The source made the active and inactive calls. A value given as a limit tells only on which side of the number the result lay.

Data on 7 molecules can be found in ChEMBL document CHEMBL1201862, “PubChem BioAssay data set” (2004).

For one assay, the target named is Genome polyprotein (Hepatitis C virus, UniProt Q2Q167). Put plainly: HCV core protein dimerization inhibitors, dose response, biochemical, TR-FRET (AID 2159).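 Note: blocks dimerization of HCV core protein measured by TR-FRET between tagged core106 pairs.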 The arrangement: species or system Hepacivirus hominis. On the technique in general: In TR-FRET formats the signal depends on donor and acceptor labels being close together.
Genome polyprotein, sequence (Q2Q167 whole entry): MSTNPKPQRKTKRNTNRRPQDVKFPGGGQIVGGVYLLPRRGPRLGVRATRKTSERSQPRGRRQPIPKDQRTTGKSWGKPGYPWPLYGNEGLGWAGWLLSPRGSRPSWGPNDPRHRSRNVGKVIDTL
Assay [1] can be described thus: M. tuberculosis H37Rv growth inhibitors, H37Rv strain (AID 1626). In kind it is functional.
A short description of assay [2]: M. tuberculosis growth inhibition, HTS (AID 449762). Type of assay: functional.
Assay [3] has as its target E3 ubiquitin-protein ligase Mdm2 (Homo sapiens, UniProt Q00987). Put plainly: enhancers of MDM2-luciferase reporter signal, concentration-effect titration, project on inhibitors of MDM2 ubiquitin ligase, cellular assay, luminescent readout, 384-well plate format (AID 1394).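 Note: MDM2 E3 inhibitors raise luminescence so EC50 is for signal enhancement.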 Type of assay: functional.
A short description of assay [4]: P. falciparum 3D7-ScDHODH growth inhibitors, dose response, SYBR Green, dry powder samples (AID 1159570).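 Note: parasite growth measured after 72 hours of compound exposure.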 In kind it is functional, cell-based.
Assay [5] can be described thus: HepG2 cell cytotoxicity, dose response, cytotoxicity control, plate reader, dry powder samples (AID 1159569).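 Note: inhibitor potency with signal falling toward the positive control level.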 In kind it is functional, cell-based.
Assay [6] is described as follows: P. falciparum Dd2 growth inhibitors, dose response, SYBR Green, dry powder samples, set 9 (AID 1159568). Type of assay: functional, cell-based.
The nature of assay [7]: P. falciparum Dd2 growth inhibitors, dose response, SYBR Green, cherry-picked samples (AID 1159567). In kind it is functional, cell-based.
The nature of assay [8]: P. falciparum Dd2 growth inhibitors, dose response, SYBR Green, dry powder samples (AID 1159566).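 Note: potency for growth inhibition with lower SYBR green DNA signal.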 Type of assay: functional, cell-based.
The nature of assay [9]: P. falciparum ATP4 D1247Y mutant growth inhibitors, dose response, NITD609-resistant line, SYBR Green, dry powder (AID 1159571).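 Note: parasites synchronized at ring stage by sorbitol before testing.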 In kind it is functional, cell-based.
In the next assay the target is NADPH oxidase 1 (Homo sapiens, UniProt Q9Y5S8). Put plainly: Late-stage luminescence-based cell-based dose response assay to identify inhibitors of NADPH oxidase 1 (NOX1): Purchased analogs 2. In kind it is functional.
NADPH oxidase 1, sequence (Q9Y5S8 whole entry): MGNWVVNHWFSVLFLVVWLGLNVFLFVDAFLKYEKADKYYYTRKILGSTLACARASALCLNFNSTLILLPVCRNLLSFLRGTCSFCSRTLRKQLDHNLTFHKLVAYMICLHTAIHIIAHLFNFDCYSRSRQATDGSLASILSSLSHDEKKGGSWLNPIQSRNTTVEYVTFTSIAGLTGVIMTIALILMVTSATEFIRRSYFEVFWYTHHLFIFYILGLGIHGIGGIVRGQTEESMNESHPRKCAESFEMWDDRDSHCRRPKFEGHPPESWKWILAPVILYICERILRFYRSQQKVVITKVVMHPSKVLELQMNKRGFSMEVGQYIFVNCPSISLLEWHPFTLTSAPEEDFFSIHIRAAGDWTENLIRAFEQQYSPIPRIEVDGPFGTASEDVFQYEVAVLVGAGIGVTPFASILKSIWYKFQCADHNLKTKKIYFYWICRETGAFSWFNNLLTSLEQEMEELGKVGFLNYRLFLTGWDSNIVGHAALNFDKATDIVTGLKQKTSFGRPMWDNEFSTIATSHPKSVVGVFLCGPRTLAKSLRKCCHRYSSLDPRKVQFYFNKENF
Assay [10] is described as follows: Luminescent dose response cell-based high throughput screening assay for inhibitors of the Janus kinase 2 mutant JAK2V617F. [Related pubchem assays: 1446 (Primary screen.), 1521 (Confirmation assay.), 1486 (Counter screen.)]. In kind it is functional. A general note: Counterscreens check selectivity or assay interference.
Assay [11] deals with T1, RNA-binding protein pos-1 (Caenorhabditis elegans, UniProt G5EF15).
T1 sequence (G5EF15 whole entry): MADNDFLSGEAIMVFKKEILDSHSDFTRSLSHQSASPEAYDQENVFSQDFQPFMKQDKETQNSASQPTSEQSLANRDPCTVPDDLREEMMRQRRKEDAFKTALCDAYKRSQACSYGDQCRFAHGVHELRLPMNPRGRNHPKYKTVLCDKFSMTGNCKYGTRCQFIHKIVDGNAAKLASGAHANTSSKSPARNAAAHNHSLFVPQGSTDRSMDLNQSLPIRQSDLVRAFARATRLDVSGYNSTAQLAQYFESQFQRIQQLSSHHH
Put plainly: inhibitors of POS-1/mex-3 RNA binding, dose response, biochemical, fluorescence polarization (AID 1964).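 Note: purified POS-1 fused to maltose binding protein made in E. coli; potency of compounds blocking POS-1 binding to fluorescent RNA.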 For orientation: Fluorescence polarisation rises when a labelled molecule tumbles more slowly, as on binding a larger partner.

The target of assay [12] is T2, Zinc finger protein mex-5 (Caenorhabditis elegans, UniProt Q9XUB2).
T2 sequence (Q9XUB2 whole entry): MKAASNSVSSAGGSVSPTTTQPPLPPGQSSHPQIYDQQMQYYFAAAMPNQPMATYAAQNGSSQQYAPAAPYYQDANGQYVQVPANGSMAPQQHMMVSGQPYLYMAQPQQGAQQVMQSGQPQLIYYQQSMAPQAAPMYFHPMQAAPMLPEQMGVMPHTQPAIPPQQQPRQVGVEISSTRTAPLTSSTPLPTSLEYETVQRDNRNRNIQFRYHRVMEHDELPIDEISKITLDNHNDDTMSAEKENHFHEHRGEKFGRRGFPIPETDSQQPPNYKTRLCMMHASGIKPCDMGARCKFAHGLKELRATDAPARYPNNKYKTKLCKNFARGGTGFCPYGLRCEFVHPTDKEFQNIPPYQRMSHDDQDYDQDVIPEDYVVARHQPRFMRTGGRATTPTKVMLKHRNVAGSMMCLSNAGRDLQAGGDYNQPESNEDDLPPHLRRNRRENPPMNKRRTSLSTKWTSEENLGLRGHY
Put plainly: MEX-5/TCR-2 RNA interaction inhibitors, dose response, biochemical, C. elegans, fluorescence polarization (AID 1960).

The target in assay [13] is Heat shock protein HSP 90-alpha (Homo sapiens, UniProt P07900). Put plainly: Luminescence-based dose response biochemical high throughput screening assay for inhibitors of the Heat Shock Protein 90 (HSP90). [Related pubchem assays: 1831 (Summary AID.), 1846 (Confirmation screen.), 1789 (Primary screen.)].
Assay [14] is described as follows: insulin promoter down-regulators in MIN6 cells, imaging, high-content screening, mouse beta cells (AID 1628). Type of assay: functional.
The nature of assay [15]: cytotoxicity in MIN6 insulinoma cells, dose response, cytotoxicity control, cell-based, mouse insulinoma (AID 2122).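 Note: confirmatory high-throughput counterscreen run to flag cytotoxic compounds; mouse MIN-6 beta cells carrying an insulin promoter eGFP reporter.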 Type of assay: functional.
Assay [16] is described as follows: inhibitors of intracellular T. cruzi replication, confirmation, NIH3T3 host cells, beta-gal luminescence (AID 2044).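 Note: intracellular parasites grown in NIH/3T3 mouse fibroblasts as host cells; luminescent beta-galactosidase reporter signal from transgenic T. cruzi replicating inside host cells; inhibitors lower the luminescence signal.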 Type of assay: functional, cell-based.
Assay [17] is described as follows: cytotoxicity toward NIH3T3 fibroblasts, dose response, counter-screen, cell-based, ATP luminescence, mouse fibroblasts (AID 2010).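 Note: cells exposed to compound for about 90 hours before reading.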 Type of assay: functional.
The nature of assay [18]: HepG2 cell cytotoxicity, dose response, cytotoxicity control, plate reader, cherry-pick, antagonist series (AID 743416). In kind it is functional, cell-based.
The nature of assay [19]: LGR2 antagonists, dose response, cell-based, HEK293, CRE-luciferase reporter, cherry pick, set 2 (AID 743343).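 Note: transfected cells were stimulated with diluted bursicon conditioned medium after compound addition.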 Type of assay: functional.
Assay [20] is described as follows: MC4R antagonists, dose response, counter-screen for LGR2 antagonist project, cell-based, plate reader, cherry pick (AID 743444).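 Note: transfected HEK 293 cells stimulated with alpha-MSH peptide; potency of inhibitors of the alpha-MSH evoked signal.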 In kind it is functional.
Assay [21] in a line: HEK293 cell cytotoxicity, dose response, cytotoxicity control, plate reader, cherry-picked samples (AID 743446). Type of assay: functional, cell-based.
The nature of assay [22]: Vero cell cytotoxicity, dose response, cytotoxicity control for Vif-APOBEC3G degradation inhibitor project, Vero cells (AID 1117358). Type of assay: functional. The note with it: Human immunodeficiency virus 1, Vero.

E3 ubiquitin-protein ligase Mdm2, sequence (Q00987 whole entry): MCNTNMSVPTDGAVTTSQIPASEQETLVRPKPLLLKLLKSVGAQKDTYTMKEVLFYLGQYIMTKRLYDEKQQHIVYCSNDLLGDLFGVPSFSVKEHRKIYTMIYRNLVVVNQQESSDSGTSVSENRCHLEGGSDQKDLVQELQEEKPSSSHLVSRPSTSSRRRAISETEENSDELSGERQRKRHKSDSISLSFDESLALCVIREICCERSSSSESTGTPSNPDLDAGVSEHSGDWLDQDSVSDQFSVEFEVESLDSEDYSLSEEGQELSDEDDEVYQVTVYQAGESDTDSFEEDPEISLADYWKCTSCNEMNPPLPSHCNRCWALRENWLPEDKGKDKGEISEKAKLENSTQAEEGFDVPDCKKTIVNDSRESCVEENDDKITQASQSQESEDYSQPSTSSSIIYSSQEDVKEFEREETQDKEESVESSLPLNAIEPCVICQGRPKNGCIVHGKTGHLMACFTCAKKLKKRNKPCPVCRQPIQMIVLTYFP

As a reminder, the IC50 is the concentration needed to halve the response being measured. As for `NS(=O)(=O)c1ccc(NC(=O)c2ccc(S(=O)(=O)N3CCc4ccccc43)cc2)cc1`, on Genome polyprotein, the IC50 is on record as > 49.8 µM (not active).

With `CCOC(=O)N1CCN=C1SCc1ccc(C(F)(F)F)cc1`, the IC50 in assay [1] and in [2] was > 100 µM (active) throughout.

In general, EC50 refers to the concentration at which the effect is half-maximal. In the case of `CC(=O)c1ccc(OCC(O)Cn2nnc3ccccc32)cc1` (centres undefined), the EC50 in [3] is 12.7 µM (not active).

As a reminder, the AC50 is the concentration at which the activity in the assay is half-maximal. `CCCNC(=O)N1[C@H](C#N)[C@H](c2ccc(-c3ccccc3F)cc2)[C@@H]1CO`: the AC50 was 6.61 µM (active) in [4]; 1.6 µM (active) in assay [5]; 0.608 µM (active) in [6]; 0.522 µM (active) in assay [7]; 0.377 µM (active) in assay [8]; 0.511 µM (active) in assay [9].

On to `CC(=O)Nc1ccc(CC(=O)Nc2ccc(Oc3ccc(Br)cc3)cc2)cc1`, for which the IC50 on NADPH oxidase 1 was > 17 µM (not active).

Turning to `O=c1oc2ccc(Cl)cc2nc1/C=C(\O)c1ccco1`, the IC50 in [10] was 1.5 µM (active); in assay [13] it was 2.73 µM (active). Further, the EC50 in [11] and in [12] was > 300 µM (not active) in each case.

The term CC50 denotes the concentration that lowers cell viability or growth by half. For the molecule `Cc1cc(C)c(Cc2c(C)nc3c(C(=O)NCc4ccco4)cnn3c2C)c(C)c1`, the IC50 was 1.51 µM (active) in assay [14] and 1.42 µM (active) in assay [15]. Further, the figures for the EC50 in assay [16] and in [17] were 2.67 µM (active) and > 60 µM (not active), respectively. The AC50 is 32.9 µM (active) in assay [18], 19.9 µM (active) in assay [19], 55.6 µM (active) in assay [20] and 50 µM (active) in assay [21]. Further, the CC50 in [22] was > 40 µM (active).
